Laboratory results taken from patent US6914045B2, “Glycopeptide antibiotics” (Wyeth Holdings Corporation, priority 2001, dated 2005).
Converted amounts (≈) assume the structure as drawn.

Tests used:
Escherichia coli = experiment: in vitro antibacterial evaluation, MIC by broth dilution; assay type: cell-based; settings: 18 hours at 35° C.
Procedure, shortened: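 Broth dilution MIC per NCCLS M7-A2 in Mueller-Hinton II medium, inoculum 5×10^5 CFU/mL, antibiotic range 64-0.06 μg/mL. MIC taken as lowest concentration inhibiting growth.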

Streptococcus sp. = experiment: as above; assay type: cell-based; settings: broth dilution, 18 hours at 35° C.
Procedure, shortened: (§1)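 Broth dilution per NCCLS M7-A2 in Mueller-Hinton II medium, inoculum 5×10^5 CFU/mL, antibiotic range 64-0.06 μg/mL. MIC taken as lowest concentration inhibiting growth; Gram-positive panel includes recent clinical isolates resistant to methicillin, penicillin and/or vancomycin.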

Staphylococcus sp. = experiment: as above; assay type: cell-based; settings: broth dilution, 18 hours at 35° C.
Procedure, shortened: as §1

Enterococcus sp. = experiment: as above; assay type: cell-based; settings: broth dilution, 18 hours at 35° C.
Procedure, shortened: as §1

[1] = anatomic pathology (histopathology of heart and kidney) in mice; assay type: in vivo; settings: CD-1 mice, 20 mg/kg intravenously daily for 9 days, necropsy day 10, microscopic histopathology
Method: Samples of tissues from necropsied mice were formalin-fixed, paraffin-embedded, sectioned, stained with hematoxylin and eosin, and examined microscopically. Histopathologic findings were recorded. These findings were subjectively graded on a scale corresponding to slight, mild, moderate, marked and severe as compared to untreated controls.

CN=C1N(C)CC(C(O)C2NC(=O)C(Cc3ccc(OC4OC(CO)C(OC5OC(CO)C(O)C(O)C5O)C(O)C4O)cc3)NC(=O)C(C(C)c3ccccc3)NC(=O)CNC(=O)C(CO)NC(=O)C(C(O)C3CN(C)C(=NC)N3C3OC(CO)C(O)C(O)C3O)NC2=O)N1C (stereo not drawn) [Example 64, Cyclo[glycyl-β-methylphenylalanyl-O-(4-O-hexopyranosylhexopyranosyl)tyrosyl-3-(1,3-dimethyl-2-(methylimino)imidazolidin-4-yl)seryl-3-[3-hexopyranosyl-1-methyl-2-(methylimino)imidazolidin-4-yl]-serylseryl]]
MIC Escherichia coli (ATCC 25922) (Escherichia coli): >128 µg/mL
MIC Escherichia coli (GC 4559) (Escherichia coli): >128 µg/mL
MIC Escherichia coli (GC 4560) (Escherichia coli): >128 µg/mL
MIC Streptococcus agalactiae (GC 4564) (Streptococcus sp.): 128 µg/mL (≈ 93.7 µM)
MIC Streptococcus pneumoniae (ATCC 6301) (Streptococcus sp.): >128 µg/mL
MIC Streptococcus pneumoniae (GC 1894) (Streptococcus sp.): 128 µg/mL (≈ 93.7 µM)
MIC Streptococcus pneumoniae (GC 4565) (Streptococcus sp.): >128 µg/mL
MIC Streptococcus pyogenes (GC 4563) (Streptococcus sp.): >128 µg/mL
MIC Streptococcus pneumoniae (ATCC 6301) (Streptococcus sp.; strain ATCC 6301): >128 µg/mL
MIC Streptococcus pneumoniae (GC 1894) (Streptococcus sp.; strain GC 1894): 128 µg/mL (≈ 93.7 µM)
MIC Streptococcus pyogenes (GC 4563) (Streptococcus sp.; strain GC 4563): >128 µg/mL
MIC Streptococcus agalactiae (GC 4564) (Streptococcus sp.; strain GC 4564): 128 µg/mL (≈ 93.7 µM)
MIC Streptococcus pneumoniae (GC 4565) (Streptococcus sp.; strain GC 4565): >128 µg/mL
MIC Staphylococcus aureus (ATCC 29213) (Staphylococcus sp.; strain ATCC 29213): >128 µg/mL
MIC Staphylococcus aureus (GC 1131) (Staphylococcus sp.; strain GC 1131): >128 µg/mL
MIC Staphylococcus aureus (GC 3051) (Staphylococcus sp.; strain GC 3051): >128 µg/mL
MIC Staphylococcus aureus (GC 3053) (Staphylococcus sp.; strain GC 3053): >128 µg/mL
MIC Staphylococcus aureus (GC 4541) (Staphylococcus sp.; strain GC 4541): >128 µg/mL
MIC Staphylococcus aureus (GC 4542) (Staphylococcus sp.; strain GC 4542): >128 µg/mL
MIC Staphylococcus aureus-SMITH (GC 4543) (Staphylococcus sp.; strain GC 4543): >128 µg/mL
MIC Staphylococcus aureus (GC 4544) (Staphylococcus sp.; strain GC 4544): >128 µg/mL
MIC Staphylococcus aureus (GC 4545) (Staphylococcus sp.; strain GC 4545): >128 µg/mL
MIC Staphylococcus haemolyticus (GC 4546) (Staphylococcus sp.; strain GC 4546): >128 µg/mL
MIC Coagulase Negative Staphylococcus (GC 4547) (Staphylococcus sp.; strain GC 4547): >128 µg/mL
MIC Coagulase Negative Staphylococcus (GC 4548) (Staphylococcus sp.; strain GC 4548): >128 µg/mL
MIC Coagulase Negative Staphylococcus (GC 4549) (Staphylococcus sp.; strain GC 4549): >128 µg/mL
MIC Coagulase Negative Staphylococcus (GC 4551) (Staphylococcus sp.; strain GC 4551): >128 µg/mL
MIC Coagulase Negative Staphylococcus (GC 6257) (Staphylococcus sp.; strain GC 6257): >128 µg/mL
MIC Enterococcus avium (GC 4558) (Enterococcus sp.; Enterococcus avium (GC 4558)): 128 µg/mL (≈ 93.7 µM)
MIC Enterococcus faecalis (ATCC 29212) (Enterococcus sp.; Enterococcus faecalis (ATCC 29212)): >128 µg/mL
MIC Enterococcus faecalis (GC 4552) (Enterococcus sp.; Enterococcus faecalis (GC 4552)): >128 µg/mL
MIC Enterococcus faecalis (GC 4553) (Enterococcus sp.; Enterococcus faecalis (GC 4553)): >128 µg/mL
MIC Enterococcus faecalis (GC 4554) (Enterococcus sp.; Enterococcus faecalis (GC 4554)): >128 µg/mL
MIC Enterococcus faecalis (GC 6189) (Enterococcus sp.; Enterococcus faecalis (GC 6189)): >128 µg/mL
MIC Enterococcus faecium (GC 2243) (Enterococcus sp.; Enterococcus faecium (GC 2243)): >128 µg/mL
MIC Enterococcus faecium (GC 4556) (Enterococcus sp.; Enterococcus faecium (GC 4556)): >128 µg/mL
MIC Enterococcus faecium (GC 4557) (Enterococcus sp.; Enterococcus faecium (GC 4557)): >128 µg/mL
MIC Enterococcus avium (GC 4558) (Enterococcus sp.): 128 µg/mL (≈ 93.7 µM)
MIC Enterococcus faecalis (ATCC 29212) (Enterococcus sp.): >128 µg/mL
MIC Enterococcus faecalis (GC 2242) (Enterococcus sp.): >128 µg/mL
MIC Enterococcus faecalis (GC 2691) (Enterococcus sp.): >128 µg/mL
MIC Enterococcus faecalis (GC 3059) (Enterococcus sp.): >128 µg/mL
MIC Enterococcus faecalis (GC 4552) (Enterococcus sp.): >128 µg/mL
MIC Enterococcus faecalis (GC 4553) (Enterococcus sp.): >128 µg/mL
MIC Enterococcus faecalis (GC 4554) (Enterococcus sp.): >128 µg/mL
MIC Enterococcus faecalis (GC 6189) (Enterococcus sp.): >128 µg/mL
MIC Enterococcus faecium (GC 2243) (Enterococcus sp.): >128 µg/mL
MIC Enterococcus faecium (GC 4556) (Enterococcus sp.): >128 µg/mL
MIC Enterococcus faecium (GC 4557) (Enterococcus sp.): >128 µg/mL
MIC Enterococcus faecalis (GC 2242) (Enterococcus sp.; strain GC 2242): >128 µg/mL
MIC Enterococcus faecalis (GC 2691) (Enterococcus sp.; strain GC 2691): >128 µg/mL
MIC Enterococcus faecalis (GC 3059) (Enterococcus sp.; strain GC 3059): >128 µg/mL
Anatomical Pathology (Day 10), Heart [1]: 0
Anatomical Pathology (Day 10), Kidney [1]: 0
